Measured values published in publication PMC2895411 (Journal of medicinal chemistry, 2010).
“Also recorded” adds a separate entry of the source.

Molecular target: T1, human TLR7 (Homo sapiens, UniProt Q9NYK1)
T1 sequence (Q9NYK1 27-1049): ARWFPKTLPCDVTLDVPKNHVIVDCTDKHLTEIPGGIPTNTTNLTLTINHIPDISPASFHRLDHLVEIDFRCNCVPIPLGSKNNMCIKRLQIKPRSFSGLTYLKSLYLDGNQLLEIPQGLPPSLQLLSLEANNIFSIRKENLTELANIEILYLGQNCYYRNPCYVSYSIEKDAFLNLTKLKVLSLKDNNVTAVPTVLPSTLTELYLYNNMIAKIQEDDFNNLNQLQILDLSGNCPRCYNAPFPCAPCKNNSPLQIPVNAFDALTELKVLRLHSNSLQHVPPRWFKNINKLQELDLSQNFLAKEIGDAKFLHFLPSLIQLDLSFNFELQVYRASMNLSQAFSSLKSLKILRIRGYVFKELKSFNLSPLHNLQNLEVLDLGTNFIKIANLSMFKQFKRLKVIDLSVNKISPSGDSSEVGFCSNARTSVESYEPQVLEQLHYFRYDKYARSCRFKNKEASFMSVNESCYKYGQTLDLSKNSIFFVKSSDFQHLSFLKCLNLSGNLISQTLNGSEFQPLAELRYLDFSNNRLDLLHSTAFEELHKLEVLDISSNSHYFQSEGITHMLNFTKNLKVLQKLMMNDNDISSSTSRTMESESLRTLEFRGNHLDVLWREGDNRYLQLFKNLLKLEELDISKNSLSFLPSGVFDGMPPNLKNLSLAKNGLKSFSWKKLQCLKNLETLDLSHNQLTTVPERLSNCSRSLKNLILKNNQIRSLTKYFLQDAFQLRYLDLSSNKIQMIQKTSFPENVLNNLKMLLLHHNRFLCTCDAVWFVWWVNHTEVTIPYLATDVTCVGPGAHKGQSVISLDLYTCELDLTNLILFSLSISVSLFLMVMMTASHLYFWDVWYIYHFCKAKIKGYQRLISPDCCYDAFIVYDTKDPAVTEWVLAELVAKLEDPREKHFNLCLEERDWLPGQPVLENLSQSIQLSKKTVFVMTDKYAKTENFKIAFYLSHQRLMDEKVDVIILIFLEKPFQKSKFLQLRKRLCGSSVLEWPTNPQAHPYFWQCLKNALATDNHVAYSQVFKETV
Test: NF-κB induction, human TLR7-specific reporter gene assay
Format: cell-based
Details: for TLR7-agonistic activity, result in words: human TLR7 reporter gene assay

Compound	TLR7-agonistic activity, result in words	other results
CC(C)Cn1cnc2c(N)nc3ccccc3c21 [Compound 1, Imiquimod, reference compound]		EC50: ~2 µM
CCN(CC)Cc1nc2c(N)nc3ccccc3c2n1CC(C)(C)O [Compound 3, 1-(4-Amino-2-((diethylamino)methyl)-1H-imidazo[4,5-c]quinolin-1-yl)-2-methylpropan-2-ol]	partial activity	
CCN(Cc1nc2c(N)nc3ccccc3c2n1CC(C)(C)O)C(C)=O [Compound 4, N-((4-Amino-1-(2-hydroxy-2-methylpropyl)-1H-imidazo[4,5-c]quinolin-2-yl)methyl)-N-ethylacetamide]	bereft of activity	
CCCCCCCCCCCCCCCC(=O)N(CC)Cc1nc2c(N)nc3ccccc3c2n1CC(C)(C)O [Compound 5, N-((4-Amino-1-(2-hydroxy-2-methylpropyl)-1H-imidazo[4,5-c]quinolin-2-yl)methyl)-N-ethylpalmitamide]	bereft of activity	
CC/N=C(/NCCCN(C)C)N(CC)Cc1nc2c(N)nc3ccccc3c2n1CC(C)(C)O [Compound 6, 1-((4-Amino-1-(2-hydroxy-2-methylpropyl)-1H-imidazo[4,5-c]quinolin-2-yl)methyl)-3-(3-(dimethylamino)propyl)-1,2-diethylguanidine]	bereft of activity	
CCN(CCOCCOCCN)Cc1nc2c(N)nc3ccccc3c2n1CC(C)(C)O [Compound 11, 1-(4-Amino-2-(((2-(2-(2-aminoethoxy)ethoxy)ethyl) (ethyl)amino)methyl)-1H-imidazo[4,5-c]quinolin-1-yl)-2-methylpropan-2-ol]	completely inactive	
CCN(CCCNC(=S)NCCCNCCCCNCCCN)Cc1nc2c(N)nc3ccccc3c2n1CC(C)(C)O [Compound 16, 1-(3-(((4-amino-1-(2-hydroxy-2-methylpropyl)-1H-imidazo[4,5-c]quinolin-2-yl)methyl)(ethyl)amino)propyl)-3-(3-(4-(3-aminopropylamino)butylamino)propyl) thiourea]	inactive	
CCCCCCCCCCCNCc1nc2c(N)nc3ccccc3c2n1CC(C)(C)O [Compound 22, 1-(4-Amino-2-((undecylamino)methyl)-1H-imidazo[4,5-c]quinolin-1-yl)-2-methylpropan-2-ol]	complete loss of activity; also recorded: completely inactive	
CCCCCc1nc2c(N)nc3ccccc3c2n1Cc1ccccc1 [Compound 32, 1-Benzyl-2-pentyl-1H-imidazo[4,5-c]quinolin-4-amine]		TLR7 activity relative to compound 2 (fold greater activity than 2): twenty-fold greater
C=CCCc1nc2c(N)nc3ccccc3c2n1Cc1ccccc1 [Compound 38, 1-Benzyl-2-(but-3-enyl)-1H-imidazo[4,5-c]quinolin-4-amine]	decrease in potency	
C#CCCc1nc2c(N)nc3ccccc3c2n1Cc1ccccc1 [Compound 43, 1-Benzyl-2-(but-3-ynyl)-1H-imidazo[4,5-c]quinolin-4-amine]	decrease in potency	
CCCCCc1nc2c(Cl)nc3ccccc3c2n1Cc1ccccc1 [Compound 44, 1-Benzyl-4-chloro-2-pentyl-1H-imidazo[4,5-c]quinoline]	completely inactive	
CCCCCc1nc2c(O)nc3ccccc3c2n1Cc1ccccc1 [Compound 46, 1-Benzyl-2-pentyl-1H-imidazo[4,5-c]quinolin-4-ol]	completely inactive	
CCCCCc1nc2c(-c3ccccc3)nc3ccccc3c2n1Cc1ccccc1 [Compound 47, 1-Benzyl-2-pentyl-4-phenyl-1H-imidazo[4,5-c]quinoline]	completely inactive	
CCCCc1nc2c(NO)nc3ccccc3c2n1Cc1ccccc1 [Compound 48, N-(1-Benzyl-2-butyl-1H-imidazo[4,5-c]quinolin-4-yl)hydroxylamine]	substantially weaker	
CCCCc1nc2c(NN)nc3ccccc3c2n1Cc1ccccc1 [Compound 49, 1-Benzyl-2-butyl-4-hydrazinyl-1H-imidazo[4,5-c]quinoline]	substantially weaker	
CCCCc1nc2cnc3ccccc3c2n1Cc1ccccc1 [Compound 50, 1-Benzyl-2-butyl-1H-imidazo[4,5-c]quinoline]	completely inactive	
CCNCc1nc2c(N)nc3ccccc3c2n1Cc1ccccc1 [Compound 52, 1-Benzyl-2-((ethylamino)methyl)-1H-imidazo[4,5-c]quinolin-4-amine]	very active	
Clc1nc2ccccc2c2c1nnn2Cc1ccccc1 [Compound 55, 1-Benzyl-4-chloro-1H-[1,2,3]triazolo[4,5-c]quinoline]	completely inactive	
Nc1nc2ccccc2c2c1nnn2Cc1ccccc1 [Compound 56, 1-Benzyl-1H-[1,2,3]triazolo[4,5-c]quinolin-4-amine]	completely inactive	
CCCNC(=O)n1c(=O)n(Cc2ccccc2)c2c3ccccc3ncc21 [Compound 57, 1-Benzyl-2-oxo-N-propyl-1H-imidazo[4,5-c]quinoline-3(2H)-carboxamide]	completely inactive	
